Here are results for 14 molecules from patent US20190085024A1, “Alpha-Ketoamide Inhibitors Of Cysteine Proteases” (Phelix Therapeutics, priority 2017, published 2019).

pIC50, pKi: −log10 of the molar value. Like-named read-outs stand apart in the source and are kept apart here.

The target of one assay is Cat S (Homo sapiens, UniProt P25774). Nature of the assay: Cat S inhibition. Format: biochemical.
In the next assay the test system is MERS WT. In words: microbe, parasite or virus in culture. Format: cell-based. To be noted: for IC50: Middle East respiratory syndrome-related coronavirus, read-out: MERS WT (μM).
A further assay concerns the target T1, Cat K (Homo sapiens, UniProt P43235).
T1 sequence (P43235 115-329): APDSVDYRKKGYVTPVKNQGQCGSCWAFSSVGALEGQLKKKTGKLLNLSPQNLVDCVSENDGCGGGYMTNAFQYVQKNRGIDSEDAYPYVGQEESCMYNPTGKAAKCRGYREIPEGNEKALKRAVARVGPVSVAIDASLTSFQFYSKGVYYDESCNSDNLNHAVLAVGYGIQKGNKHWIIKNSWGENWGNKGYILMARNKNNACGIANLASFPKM
Nature of the assay: Cat K inhibition. Format: biochemical.

Assay [1] deals with EBOV WT (Ebola Wild Type). Nature of the assay: microbe, parasite or virus in culture. Format: cell-based. To be noted: read-out: EBOV WT (μM) (Ebola Wild Type).
In another assay the target is Cathepsin B (Homo sapiens, UniProt P07858). In words: Cathepsin B enzyme assay. The conditions noted are these: Cat B (μM), Ki by Morrison equation; pH 6.0, substrate Z-Phe-Arg-Amc.
For the next assay, the target named is Calpain. Nature of the assay: Calpain enzyme assay. Format: biochemical. To be noted: Ki by Morrison equation; pH 7.5, 5 mM CaCl2.
The target in the next assay is Cathepsin L (Homo sapiens, UniProt P07711). Nature of the assay: Cathepsin L enzyme assay. To be noted: Ki by Morrison equation; pH 5.5, substrate Z-Phe-Arg-Amc; read-out: Cat L. Format: biochemical. The source says:
Two wells contained DMSO only for controls.
Velocity was converted to μM/sec.

The test system of a further assay is Collagen. Nature of the assay: Fibrosis-Sirius Red Collagen Assay. Format: cell-based.

Broadly, the Ki is a dissociation constant, usually derived from enzyme kinetics or from competition with a known ligand. Low readings indicate a stronger hold on the target, high ones a looser hold on the target.

Chain of Cat S (P25774 115-331): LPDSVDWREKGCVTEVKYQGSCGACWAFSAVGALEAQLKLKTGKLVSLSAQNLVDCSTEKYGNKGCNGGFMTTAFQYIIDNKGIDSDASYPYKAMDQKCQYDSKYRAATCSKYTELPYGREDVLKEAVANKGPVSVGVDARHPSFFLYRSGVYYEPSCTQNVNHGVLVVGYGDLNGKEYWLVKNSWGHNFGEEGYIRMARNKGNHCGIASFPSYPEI
Chain of Cathepsin L (P07711 114-333, species assumed): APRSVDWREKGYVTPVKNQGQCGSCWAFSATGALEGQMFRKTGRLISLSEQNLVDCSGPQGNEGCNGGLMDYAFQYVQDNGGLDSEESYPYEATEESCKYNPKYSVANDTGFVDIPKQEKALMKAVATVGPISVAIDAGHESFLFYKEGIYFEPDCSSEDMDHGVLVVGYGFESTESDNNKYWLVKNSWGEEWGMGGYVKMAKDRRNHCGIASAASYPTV

For the molecule `CC(NC(=O)C(Cc1ccccc1)NC(=O)Cc1ccccc1)C(=O)C(=O)NC(Cc1ccccc1)C(=O)NC(Cc1ccc(C(C)(C)C)cc1)C(N)=O` (stereo not shown) [PHELIX221, N-(1-((1-amino-3-(4-(tert-butyl)phenyl)-1-oxopropan-2-yl)amino)-1-oxo-3-phenylpropan-2-yl)-2-oxo-3-(3-phenyl-2-(2-phenylacetamido)propanamido)butanamide], the pKi was 9.72 on Cat S, 7.87 on Cat K, less than 5.00 at Calpain and 10.70 on Cathepsin L. The IC50 was 1.32 µM in the assay on MERS WT and 0.03 µM in assay [1] (Zaire ebolavirus). This molecule also came in with a Ki at Cathepsin B of 3.57 µM.
For the molecule `CC(NC(=O)C(Cc1ccccc1)NC(=O)Cc1ccccc1)C(=O)C(=O)NC(Cc1ccccc1)C(=O)NC(Cc1ccc2ccccc2c1)C(N)=O` (stereo not shown) [PHELIX220, N-(1-((1-amino-3-(naphthalen-2-yl)-1-oxopropan-2-yl)amino)-1-oxo-3-phenylpropan-2-yl)-2-oxo-3-(3-phenyl-2-(2-phenylacetamido)propanamido)butanamide], the pKi is 9.66 on Cat S, 7.66 on Cat K, less than 5.00 at Calpain and 10.30 at Cathepsin L. The pIC50 in the assay on MERS WT (read-out: MERS WT) is 5.50. In addition, the IC50 in assay [1] was 0.06 µM. Besides, the Ki at Cathepsin B amounted to 5.1 µM.
Turning to `CC(NC(=O)C(Cc1cccc2ccccc12)NC(=O)Cc1ccccc1)C(=O)C(=O)NC(Cc1ccccc1)C(=O)NC(C)(C)C(N)=O` (stereo not shown) [PHELIX205, N-(1-((1-amino-2-methyl-1-oxopropan-2-yl)amino)-1-oxo-3-phenylpropan-2-yl)-3-(3-(napthalen-1-yl)-2-(2-phenylacetamido)propanamido)-2-oxobutanamide], the pKi was 6.64 on Cat S, 5.19 on Cat K, 4.90 at Calpain and 7.15 on Cathepsin L. The IC50 with MERS WT was more than 10 µM; in assay [1] (Zaire ebolavirus) it was 21.9 µM. The molecule further returned a Ki at Cathepsin B of 0.977 µM.
Regarding `CC(NC(=O)C(Cc1ccc(F)cc1)NC(=O)Cc1ccccc1)C(=O)C(=O)NC(Cc1ccccc1)C(=O)NC(C)(C)C(N)=O` (stereo not shown) [PHELIX208, N-(1-((1-amino-2-methyl-1-oxopropan-2-yl)amino)-1-oxo-3-phenylpropan-2-yl)-3-(3-(4-fluorophenyl)-2-(2-phenylacetamido)propanamido)-2-oxobutanamide], the pKi at Cat S was 8.43; at Cat K, 5.72; at Calpain, less than 5.00; on Cathepsin L it was 7.81. Further, the IC50 in the assay with MERS WT came to 184 µM; in assay [1] (Zaire ebolavirus) it was 8.15 µM. The molecule further displayed a Ki on Cathepsin B of 0.42 µM.
Turning to `CC(NC(=O)C(Cc1cccc(C(F)(F)F)c1)NC(=O)Cc1ccccc1)C(=O)C(=O)NC(Cc1ccccc1)C(=O)NC(C)(C)C(N)=O` (stereo not shown) [PHELIX209, N-(1-((1-amino-2-methyl-1-oxopropan-2-yl)amino)-1-oxo-3-phenylpropan-2-yl)-2-oxo-3-(2-(2-phenylacetamido)-3-(3-(trifluoromethyl)phenyl)propanamido)butanamide], the pKi was 7.40 at Cat S, less than 5.00 on Cat K, less than 5.00 at Calpain and 7.18 on Cathepsin L. Besides, the results for the IC50 (in the assay with MERS WT; in assay [1] (Zaire ebolavirus)) were more than 10 µM and 7.87 µM, respectively. Further, at Cathepsin B, the Ki is 0.234 µM.
Consider `CC(NC(=O)C(Cc1ccccc1)NC(=O)c1ccccc1)C(=O)C(=O)NC(Cc1ccccc1)C(=O)NC(C)(C)C(N)=O` (stereo not shown) [PHELIX223, N-(1-((4-((1-((1-amino-2-methyl-1-oxopropan-2-yl)amino)-1-oxo-3-phenylpropan-2-yl)amino)-3,4-dioxobutan-2-yl)amino)-1-oxo-3-phenylpropan-2-yl)benzamide], for which the pKi was 8.35 on Cat S, 6.55 at Cat K, less than 5.00 at Calpain and 7.70 at Cathepsin L. Further, the IC50 in the assay with MERS WT was 35.3 µM; in assay [1] (Zaire ebolavirus) it was 5.61 µM. This molecule also showed a Ki at Cathepsin B of 0.246 µM.
For `CC(NC(=O)C(Cc1ccccc1)NC(=O)Cc1cccc(F)c1)C(=O)C(=O)NC(Cc1ccccc1)C(=O)NC(C)(C)C(N)=O` (stereo not shown) [PHELIX227, N-(1-((1-amino-2-methyl-1-oxopropan-2-yl)amino)-1-oxo-3-phenylpropan-2-yl)-3-(2-(2-(3-fluorophenyl)acetamido)-3-phenylpropanmido)-2-oxobutanamide], the pKi on Cat S was 7.79; on Cat K, 6.27; at Calpain, less than 5.00; on Cathepsin L it was 7.23. Moreover, the figures for the IC50 (with MERS WT; in assay [1] (Zaire ebolavirus)) were more than 10 µM and 16.8 µM, respectively. In addition, the Ki at Cathepsin B is 0.171 µM.
For `Cc1cccc(CC(=O)NC(Cc2ccccc2)C(=O)NC(C)C(=O)C(=O)NC(Cc2ccccc2)C(=O)NC(C)(C)C(N)=O)c1` (stereo not shown) [PHELIX225, N-(1-((1-amino-2-methyl-1-oxopropan-2-yl)amino)-1-oxo-3-phenylpropan-2-yl)-2-oxo-3-(3-phenyl-2-(2-(m-tolyl)acetamido)propanmido)butanamide], the pKi at Cat S is 8.09; on Cat K, 6.60; at Calpain, less than 5.00; at Cathepsin L, 7.73. In addition, the values for the IC50 (with MERS WT; in assay [1] (Zaire ebolavirus)) were 84.2 µM and 6.17 µM, respectively. The molecule further had a Ki at Cathepsin B of 0.299 µM.
Molecule `CCC(C)C(NC(=O)C(CC(C)C)NC(=O)OCc1ccccc1)C(=O)C(=O)NCC(=O)N(C)C(Cc1ccccc1)C(N)=O` (stereo not shown) [PHELIX319, benzyl (1-((1-((2-((1-amino-1-oxo-3-phenylpropan-2-yl)(methyl)amino)-2-oxoethyl)amino)-4-methyl-1,2-dioxohexan-3-yl)amino)-4-methyl-1-oxopentan-2-yl)carbamate] gave a pIC50 with Collagen of 4.93. For the same molecule, the Ki at Cathepsin B amounted to 0.456 µM. Besides, the pKi at Calpain is 9.17; at Cathepsin L it was 9.55.
For `CC(NC(=O)C(Cc1ccccc1F)NC(=O)Cc1ccccc1)C(=O)C(=O)NC(Cc1ccccc1)C(=O)NC(C)(C)C(N)=O` (stereo not shown) [PHELIX207, N-(1-((1-amino-2-methyl-1-oxopropan-2-yl)amino)-1-oxo-3-phenylpropan-2-yl)-3-(3-(2-fluorophenyl)-2-(2-phenylacetamido)propanamido)-2-oxobutanamide], the pKi was 8.59 on Cat S, 6.37 at Cat K, less than 5.00 on Calpain and 7.82 on Cathepsin L. The IC50 with MERS WT was found to be 195 µM; in assay [1] (Zaire ebolavirus), 8.59 µM. At Cathepsin B, this molecule yielded a Ki of 0.187 µM.
Regarding `CC(NC(=O)C(Cc1cccc(F)c1)NC(=O)Cc1ccccc1)C(=O)C(=O)NC(Cc1ccccc1)C(=O)NC(C)(C)C(N)=O` (stereo not shown) [PHELIX212, N-(1-((1-amino-2-methyl-1-oxopropan-2-yl)amino)-1-oxo-3-phenylpropan-2-yl)-3-(3-(3-fluorophenyl)-2-(2-phenylacetamido)propanamido)-2-oxobutanamide], the pKi was 7.86 on Cat S, 5.92 on Cat K, less than 5.00 on Calpain and 7.69 at Cathepsin L. Moreover, the results for the IC50 (in the assay on MERS WT; in assay [1] (Zaire ebolavirus)) were 139 µM and 7.41 µM, respectively. The Ki at Cathepsin B worked out at 0.231 µM.
Turning to `CC(NC(=O)C(Cc1ccccc1)NC(=O)c1cccc(F)c1)C(=O)C(=O)NC(Cc1ccccc1)C(=O)NC(C)(C)C(N)=O` (stereo not shown) [PHELIX222, N-(1-((4-((1-((1-amino-2-methyl-1-oxopropan-2-yl)amino)-1-oxo-3-phenylpropan-2-yl)amino)-3,4-dioxobutan-2-yl)amino)-1-oxo-3-phenylpropan-2-yl)-3-fluorobenzamide], the pKi at Cat S was 7.75; at Cat K it was 5.48; on Calpain it was less than 5.00; on Cathepsin L, 7.60. Moreover, the IC50 in the assay with MERS WT came out at 151 µM; in assay [1] (Zaire ebolavirus), 5.19 µM. For the same molecule, the Ki at Cathepsin B stood at 1.83 µM.
As to `CCC(C)C(NC(=O)C(CC(C)C)NC(=O)Cc1ccccc1)C(=O)C(=O)NCC(=O)NC(Cc1ccc2ccccc2c1)C(N)=O` (stereo not shown) [PHELIX300, N-(2-((1-amino-3-(naphthalen-2-yl)-1-oxopropan-2-yl)amino)-2-oxoethyl)-4-methyl-3-(4-methyl-2-(2-phenylacetamido)pentanamido)-2-oxohexanamide], in the assay on Collagen, the pIC50 is 5.35. Also, the figures for the pKi on Calpain and on Cathepsin L were 9.09 and 10.70, respectively.
On to `CC(C)CC(NC(=O)C(=O)C(C)NC(=O)C(Cc1ccccc1)NC(=O)Cc1ccccc1)C(=O)NC(C)(C)C(N)=O` (stereo not shown) [PHELIX214, N-(1-amino-2-methyl-1-oxopropan-2-yl)-4-methyl-2-(2-oxo-3-(3-phenyl-2-(2-phenylacetamido)propanamido)butanamido)pentanamide], for which the pKi is 7.40 on Cat S, 5.61 at Cat K, 4.07 at Calpain and 6.55 at Cathepsin L. Moreover, the figures for the IC50 (in the assay with MERS WT; in assay [1] (Zaire ebolavirus)) were more than 10 µM and 24.2 µM, respectively. The molecule further had a Ki at Cathepsin B of 5.79 µM.
